Among the data in PubChem BioAssay (NCI) are GI50 and TGI values, retold here.

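Cells were grown in 96-well plates and exposed to each compound for 48 hours at five concentrations; endpoints were interpolated linearly between bracketing concentrations, or set to the highest concentration if not reached. At the GI50, growth is halved. Definition used: TGI = concentration required for complete inhibition of growth.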

Common to all, as to test: growth of human tumour cells (NCI), 48 h
Test [1] relates to A549 NSCLC.
The subject of test [2] is HCC-2998 colon.
Test [3] relates to HT29 colon.
Test [4] has as its system K-562 leukemia.
The test system of test [5] is M14 melanoma.
For test [6], the system named is NCI-H226 lung.
The test system of test [7] is OVCAR-3 ovarian.
The test system of test [8] is OVCAR-5 ovarian.
In test [9] the test system is SNB-75 CNS.
For test [10], the system named is TK-10 renal.

Consider `COc1ccc(-c2nc3ccc(-c4nc5ccc(N6CCN(c7ccccc7)CC6)cc5[nH]4)cc3[nH]2)cc1OC`, for which the GI50 in test [1] is 2.03 µM; in test [2], 1.72 µM; in test [3] it was 1.2 µM; in test [4], 0.366 µM; in test [5], 1.69 µM; in test [6], 14.5 µM. Besides, the GI50 in [7] is 2.04 µM; in test [8] it was 2.21 µM; in test [9], 1.06 µM; in [10], 2.2 µM. Besides, the TGI in test [1] turned out to be 6.73 µM; in [2], 3.34 µM; in test [3], 2.68 µM; in test [4] it was 2.92 µM; in test [5] it was 6.32 µM; in test [6], 32.6 µM. The TGI in test [7] was found to be 3.64 µM; in [8], 4.48 µM; in [9], 3.8 µM; in test [10], 4.42 µM.

For `O=C(N[C@@H](c1ccc(Cl)c(Cl)c1)C1CNC1)c1ccc2cnccc2c1`, the GI50 is 0.417 µM in [1]; 0.246 µM in [2]; 0.206 µM in test [3]; 3.2 µM in test [4]; 0.343 µM in test [5]; 0.626 µM in [6]. In addition, the GI50 in test [7] is 1.56 µM; in [8], 0.34 µM; in test [9], below 0.0125 µM; in [10], 0.133 µM. Besides, the TGI in test [1] was 12.5 µM; in test [2] it was 3.51 µM; in test [3], 12.1 µM; in test [4], above 40.3 µM; in test [5], 8.4 µM; in test [6], 5.43 µM. The TGI in [7] worked out at 13.2 µM; in [8], 14.2 µM; in test [9] it was 0.264 µM; in test [10] it was 3.09 µM.

As for `CCOc1ccc(NC(=O)CC#N)cc1`, the TGI in test [1], in test [2], in [3], in [4], in test [5] and in test [6] was above 100 µM in each case. For the same compound, the TGI in test [7], in test [8], in [9] and in [10] was above 100 µM each time.

With `COc1cc2c(c(OC)c1OC)-c1ccc(SC)c(=O)cc1C(NC=O)CC2` (stereo not given), the TGI in [1] was above 83.4 µM; in test [2], above 100 µM; in test [3] it was 1.1 µM; in test [4], above 77.2 µM; in test [5] it was above 21.5 µM; in test [6], 0.754 µM. Moreover, the TGI in test [7] was 2.33 µM; in test [8], above 94.3 µM; in test [9], above 21.5 µM; in test [10] it was above 100 µM.

On to `C=C(C)[C@@H]1CC[C@]2(C)[C@H](CC=C3[C@@H]4CC(C)(C)CC[C@]4(C(N)=O)CC[C@]32C)[C@@]1(C)CCC#N`, for which the GI50 was 4.1 µM in test [1]; 4.02 µM in [2]; 3.48 µM in [3]; 2.54 µM in [4]; 3.11 µM in test [5]; 2.94 µM in test [6]. Besides, the GI50 in [7] was 3.49 µM; in test [8] it was 4.35 µM; in test [9], 2.33 µM; in [10], 7.32 µM. In addition, the TGI in test [1] is above 100 µM; in test [2] it was above 100 µM; in [3] it was above 100 µM; in [4], above 100 µM; in test [5], above 100 µM; in [6], 9.41 µM. For the same compound, the TGI in [7] was above 100 µM; in [8], above 100 µM; in test [9], 9.71 µM; in test [10], above 100 µM.

As for `CCCN1C(=O)N(CCC)C2C1NC(=S)N2/N=C/C=C/c1ccccc1OC` (stereo not given), the GI50 was 0.868 µM in test [1]; 2.36 µM in [2]; 0.386 µM in test [3]; 0.41 µM in test [4]; 0.455 µM in test [5]; 4.17 µM in test [6]. Besides, the GI50 in test [7] was 0.273 µM; in test [8], 3.61 µM; in test [9] it was 0.233 µM; in test [10], 12.6 µM. Besides, the TGI in test [1] is above 100 µM; in test [2], 65.1 µM; in test [3], 17.8 µM; in [4], above 100 µM; in test [5] it was above 100 µM; in test [6], above 43.9 µM. The TGI in test [7] was 0.815 µM; in [8], above 100 µM; in test [9] it was 2.3 µM; in test [10], above 100 µM.

As to `CN1CCOC(c2ccccc2)O1` (stereo not given), the TGI in test [1], in test [2], in [3], in [4], in [5] and in test [6] was above 100 µM throughout. In addition, the TGI in test [7], in test [8], in [9] and in test [10] was above 100 µM in each case.

Take `COc1cccc(C2=NC(C(C)C)CO2)c1` (stereo not given): the TGI in test [1], in test [2], in test [3], in test [4], in test [5] and in test [6] was above 100 µM each time. In addition, the TGI in [7], in [8], in test [9] and in [10] was above 100 µM each time.

On to `O=C(CSc1nc2ccccc2nc1-c1ccccc1)Nc1ccc(F)cc1`, for which the GI50 is 49.3 µM in test [1]; 49.6 µM in test [2]; 21.5 µM in test [3]; 30.8 µM in test [4]; above 100 µM in [5]; above 100 µM in test [6]. Also, the GI50 was 28 µM in test [7], above 100 µM in [8], 21.6 µM in test [9] and 41.1 µM in test [10]. The TGI in test [1] was above 100 µM; in [2] it was above 100 µM; in [3] it was 96.5 µM; in test [4] it was above 100 µM; in test [5], above 100 µM; in test [6], above 100 µM. The TGI in [7] was above 100 µM; in test [8], above 100 µM; in [9], 80.8 µM; in test [10] it was above 100 µM.
